Data taken from article PMC11251196, “Actinium chelation and crystallization in a macromolecular scaffold” (Nature Communications, 2024).

Columns and labels:
Format in all cases: binding
siderocalin (Scn) [1] = molecular target: T1, siderocalin (Scn) (Homo sapiens, UniProt P80188); assay: tryptophan fluorescence quenching titration, pH […]; crystal structure at […] Å
T1 construct: gene LCN2

siderocalin (Scn) [2] = molecular target: T1, siderocalin (Scn); assay: as above; remark: listed apart in the source
siderocalin (Scn) [3] = molecular target: T1, siderocalin (Scn); assay: tryptophan fluorescence quenching titration of metal-free ligand, pH […]

T1 sequence (P80188 21-198): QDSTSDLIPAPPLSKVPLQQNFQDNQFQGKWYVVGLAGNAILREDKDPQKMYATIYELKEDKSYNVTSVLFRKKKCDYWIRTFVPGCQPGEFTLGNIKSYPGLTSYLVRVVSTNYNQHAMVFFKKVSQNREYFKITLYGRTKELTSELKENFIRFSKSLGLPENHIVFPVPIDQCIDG

**Q.** For `O=C(NCCCN(CCCCN(CCCNC(=O)c1cccc(=O)n1O)C(=O)c1cccc(=O)n1[O-])C(=O)c1cccc(=O)n1[O-])c1cccc(=O)n1[O-].[Ac+3]` [[Ac^III(HOPO)]^1–], which Kd (siderocalin (Scn) [1]) is on record?
**A.** 6 nM

**Q.** With `O=C(NCCCN(CCCCN(CCCNC(=O)c1cccc(=O)n1O)C(=O)c1cccc(=O)n1[O-])C(=O)c1cccc(=O)n1[O-])c1cccc(=O)n1[O-].[La+3]` [[La^III(HOPO)]^1–] as the compound, how does the Kd (siderocalin (Scn) [2]) read?
**A.** 20 nM

**Q.** For `O=C(NCCCN(CCCCN(CCCNC(=O)c1cccc(=O)n1O)C(=O)c1cccc(=O)n1O)C(=O)c1cccc(=O)n1O)c1cccc(=O)n1O` [HOPO, 3,4,3-LI(1,2-HOPO)], which Kd (siderocalin (Scn) [3]) is on record?
**A.** 43 nM
